Reference: paper PMC7377474, “Preclinical characterization of CPL302-253, a selective inhibitor of PI3Kδ, as the candidate for the inhalatory treatment and prevention of Asthma” (PLoS ONE, 2020)

Key:
Experiment in all cases: SafetyScan44
Type in all cases: cell-based
HTR2B = biological target: T1, HTR2B (Homo sapiens, UniProt P41595); conditions: 10 μM
T1 construct: purchased DiscoverX (Eurofins) SafetyScan44
Experimental: (§1) SafetyScan44 assay was performed by DiscoverX according to service provider’s protocol.

AR = biological target: T2, AR (Homo sapiens, UniProt P10275); conditions: 10 μM
T2 construct: purchased DiscoverX (Eurofins) SafetyScan44
Experimental: as §1

INSR = biological target: T3, INSR (Homo sapiens, UniProt P06213); conditions: 10 μM; Inhibitor mode
T3 construct: purchased DiscoverX (Eurofins) SafetyScan44
Experimental: as §1

CNR1 = biological target: T4, CNR1 (Homo sapiens, UniProt P21554); conditions: 10 μM
T4 construct: purchased DiscoverX (Eurofins) SafetyScan44
Experimental: as §1

CHRM2 = biological target: T5, CHRM2 (Homo sapiens, UniProt P08172); conditions: 10 μM
T5 construct: purchased DiscoverX (Eurofins) SafetyScan44
Experimental: as §1

SERT = biological target: T6, SERT (Homo sapiens, UniProt P31645); conditions: 10 μM; Blocker mode
T6 construct: purchased DiscoverX (Eurofins) SafetyScan44
Experimental: as §1

NET = biological target: T7, NET (Homo sapiens, UniProt P23975); conditions: 10 μM; Blocker mode
T7 construct: purchased DiscoverX (Eurofins) SafetyScan44
Experimental: as §1

DRD2S = biological target: T8, DRD2S (Homo sapiens, UniProt P14416); conditions: 10 μM
T8 construct: purchased DiscoverX (Eurofins) SafetyScan44
Experimental: as §1

CHRM1 = biological target: T9, CHRM1 (Homo sapiens, UniProt P11229); conditions: 10 μM
T9 construct: purchased DiscoverX (Eurofins) SafetyScan44
Experimental: as §1

CHRM3 = biological target: T10, CHRM3 (Homo sapiens, UniProt P20309); conditions: 10 μM
T10 construct: purchased DiscoverX (Eurofins) SafetyScan44
Experimental: as §1

AChE = biological target: T11, AChE (Homo sapiens, UniProt P22303); conditions: 10 μM; Inhibitor mode
T11 construct: purchased DiscoverX (Eurofins) SafetyScan44
Experimental: as §1

ADRA1A = biological target: T12, ADRA1A (Homo sapiens, UniProt P35348); conditions: 10 μM
T12 construct: purchased DiscoverX (Eurofins) SafetyScan44
Experimental: as §1

ROCK1 = biological target: T13, ROCK1 (Homo sapiens, UniProt Q13464); conditions: 10 μM; Inhibitor mode
T13 construct: purchased DiscoverX (Eurofins) SafetyScan44
Experimental: as §1

PDE3A = biological target: T14, PDE3A (Homo sapiens, UniProt Q14432); conditions: 10 μM; Inhibitor mode
T14 construct: purchased DiscoverX (Eurofins) SafetyScan44
Experimental: as §1

ADORA2A = biological target: T15, ADORA2A (Homo sapiens, UniProt P29274); conditions: 10 μM
T15 construct: purchased DiscoverX (Eurofins) SafetyScan44
Experimental: as §1

LCK = biological target: T16, LCK (Homo sapiens, UniProt P06239); conditions: 10 μM; Inhibitor mode
T16 construct: purchased DiscoverX (Eurofins) SafetyScan44
Experimental: as §1

CNR2 = biological target: T17, CNR2 (Homo sapiens, UniProt P34972); conditions: 10 μM
T17 construct: purchased DiscoverX (Eurofins) SafetyScan44
Experimental: as §1

GABAA = conditions: 10 μM
Experimental: as §1

CAV1.2 = biological target: T18, CAV1.2 (Homo sapiens, UniProt Q13936); conditions: 10 μM; Blocker mode
T18 construct: purchased DiscoverX (Eurofins) SafetyScan44
Experimental: as §1

DRD1 = biological target: T19, DRD1 (Homo sapiens, UniProt P21728); conditions: 10 μM
T19 construct: purchased DiscoverX (Eurofins) SafetyScan44
Experimental: as §1

PDE4D2 = biological target: T20, PDE4D2 (Homo sapiens, UniProt Q08499); conditions: 10 μM; Inhibitor mode
T20 construct: purchased DiscoverX (Eurofins) SafetyScan44
Experimental: as §1

GR = biological target: T21, GR (Homo sapiens, UniProt P04150); conditions: 10 μM
T21 construct: purchased DiscoverX (Eurofins) SafetyScan44
Experimental: as §1

OPRM1 = biological target: T22, OPRM1 (Homo sapiens, UniProt P35372); conditions: 10 μM
T22 construct: purchased DiscoverX (Eurofins) SafetyScan44
Experimental: as §1

HRH1 = biological target: T23, HRH1 (Homo sapiens, UniProt P35367); conditions: 10 μM
T23 construct: purchased DiscoverX (Eurofins) SafetyScan44
Experimental: as §1

MAOA = biological target: T24, MAOA (Homo sapiens, UniProt P21397); conditions: 10 μM; Inhibitor mode
T24 construct: purchased DiscoverX (Eurofins) SafetyScan44
Experimental: as §1

ADRB1 = biological target: T25, ADRB1 (Homo sapiens, UniProt P08588); conditions: 10 μM
T25 construct: purchased DiscoverX (Eurofins) SafetyScan44
Experimental: as §1

HRH2 = biological target: T26, HRH2 (Homo sapiens, UniProt P25021); conditions: 10 μM
T26 construct: purchased DiscoverX (Eurofins) SafetyScan44
Experimental: as §1

HTR1B = biological target: T27, HTR1B (Homo sapiens, UniProt P28222); conditions: 10 μM
T27 construct: purchased DiscoverX (Eurofins) SafetyScan44
Experimental: as §1

ADRA2A = biological target: T28, ADRA2A (Homo sapiens, UniProt P08913); conditions: 10 μM
T28 construct: purchased DiscoverX (Eurofins) SafetyScan44
Experimental: as §1

NAV1.5 = biological target: T29, NAV1.5 (Homo sapiens, UniProt Q14524); conditions: 10 μM; Blocker mode
T29 construct: purchased DiscoverX (Eurofins) SafetyScan44
Experimental: as §1

AVPR1A = biological target: T30, AVPR1A (Homo sapiens, UniProt P37288); conditions: 10 μM
T30 construct: purchased DiscoverX (Eurofins) SafetyScan44
Experimental: as §1

HTR1A = biological target: T31, HTR1A (Homo sapiens, UniProt P08908); conditions: 10 μM
T31 construct: purchased DiscoverX (Eurofins) SafetyScan44
Experimental: as §1

EDNRA = biological target: T32, EDNRA (Homo sapiens, UniProt P25101); conditions: 10 μM
T32 construct: purchased DiscoverX (Eurofins) SafetyScan44
Experimental: as §1

OPRK1 = biological target: T33, OPRK1 (Homo sapiens, UniProt P41145); conditions: 10 μM
T33 construct: purchased DiscoverX (Eurofins) SafetyScan44
Experimental: as §1

OPRD1 = biological target: T34, OPRD1 (Homo sapiens, UniProt P41143); conditions: 10 μM
T34 construct: purchased DiscoverX (Eurofins) SafetyScan44
Experimental: as §1

COX2 = biological target: T35, COX2 (Homo sapiens, UniProt P35354); conditions: 10 μM; Inhibitor mode
T35 construct: purchased DiscoverX (Eurofins) SafetyScan44
Experimental: as §1

VEGFR2 = biological target: T36, VEGFR2 (Homo sapiens, UniProt P35968); conditions: 10 μM; Inhibitor mode
T36 construct: purchased DiscoverX (Eurofins) SafetyScan44
Experimental: as §1

T21 sequence (P04150 whole entry): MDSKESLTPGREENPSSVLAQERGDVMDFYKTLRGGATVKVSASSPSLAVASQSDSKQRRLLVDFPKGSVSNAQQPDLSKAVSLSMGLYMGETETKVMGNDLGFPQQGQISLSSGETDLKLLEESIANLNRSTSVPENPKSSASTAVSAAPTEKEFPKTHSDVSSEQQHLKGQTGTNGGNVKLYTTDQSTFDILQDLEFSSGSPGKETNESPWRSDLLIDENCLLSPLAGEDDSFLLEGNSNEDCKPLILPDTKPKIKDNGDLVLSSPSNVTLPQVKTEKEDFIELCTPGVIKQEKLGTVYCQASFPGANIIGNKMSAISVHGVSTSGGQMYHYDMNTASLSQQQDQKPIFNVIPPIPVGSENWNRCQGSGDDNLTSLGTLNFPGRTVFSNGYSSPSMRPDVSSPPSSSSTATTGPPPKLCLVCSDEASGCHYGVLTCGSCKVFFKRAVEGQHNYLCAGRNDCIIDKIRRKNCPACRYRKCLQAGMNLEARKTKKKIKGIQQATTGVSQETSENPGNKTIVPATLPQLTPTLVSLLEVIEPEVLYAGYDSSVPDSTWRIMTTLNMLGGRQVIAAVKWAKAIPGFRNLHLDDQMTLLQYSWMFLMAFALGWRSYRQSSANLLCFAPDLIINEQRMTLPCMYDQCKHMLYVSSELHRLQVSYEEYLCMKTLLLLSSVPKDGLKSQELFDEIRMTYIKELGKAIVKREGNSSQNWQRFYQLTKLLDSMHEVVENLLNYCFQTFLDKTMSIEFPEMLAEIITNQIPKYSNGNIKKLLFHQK
T23 sequence (P35367 whole entry): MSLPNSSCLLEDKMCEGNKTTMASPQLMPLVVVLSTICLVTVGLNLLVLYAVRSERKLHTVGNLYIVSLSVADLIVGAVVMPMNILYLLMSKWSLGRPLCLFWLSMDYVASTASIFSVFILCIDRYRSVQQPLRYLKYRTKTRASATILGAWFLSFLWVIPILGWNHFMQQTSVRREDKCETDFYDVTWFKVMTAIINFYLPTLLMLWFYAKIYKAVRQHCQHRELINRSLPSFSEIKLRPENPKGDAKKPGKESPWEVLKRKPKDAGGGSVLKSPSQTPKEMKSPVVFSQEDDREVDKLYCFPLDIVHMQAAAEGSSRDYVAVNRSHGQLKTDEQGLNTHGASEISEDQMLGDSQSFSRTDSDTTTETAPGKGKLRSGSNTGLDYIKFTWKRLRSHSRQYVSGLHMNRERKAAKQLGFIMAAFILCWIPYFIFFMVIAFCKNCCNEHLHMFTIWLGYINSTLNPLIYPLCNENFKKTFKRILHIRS
T15 sequence (P29274 whole entry): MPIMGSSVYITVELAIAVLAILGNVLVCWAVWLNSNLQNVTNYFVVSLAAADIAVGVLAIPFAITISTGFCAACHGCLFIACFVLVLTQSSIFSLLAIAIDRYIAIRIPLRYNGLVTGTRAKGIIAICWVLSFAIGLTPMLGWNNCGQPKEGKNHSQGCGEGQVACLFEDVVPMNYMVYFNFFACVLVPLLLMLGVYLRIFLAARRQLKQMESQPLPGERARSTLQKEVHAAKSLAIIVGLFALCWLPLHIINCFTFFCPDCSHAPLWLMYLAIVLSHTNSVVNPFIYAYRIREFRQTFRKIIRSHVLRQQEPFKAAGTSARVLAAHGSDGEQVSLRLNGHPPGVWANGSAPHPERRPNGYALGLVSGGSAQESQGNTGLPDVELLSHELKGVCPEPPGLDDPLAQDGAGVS
T27 sequence (P28222 whole entry): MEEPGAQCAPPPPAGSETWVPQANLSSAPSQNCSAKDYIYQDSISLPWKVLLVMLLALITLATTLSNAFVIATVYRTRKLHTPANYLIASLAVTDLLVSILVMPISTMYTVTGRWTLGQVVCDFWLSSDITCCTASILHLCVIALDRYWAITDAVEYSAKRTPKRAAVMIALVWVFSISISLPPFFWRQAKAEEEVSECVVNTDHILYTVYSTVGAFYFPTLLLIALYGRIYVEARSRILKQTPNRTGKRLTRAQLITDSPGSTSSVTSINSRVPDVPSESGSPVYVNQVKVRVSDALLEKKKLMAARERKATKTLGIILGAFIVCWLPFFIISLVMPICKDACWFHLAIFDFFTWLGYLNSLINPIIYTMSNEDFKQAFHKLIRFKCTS
T33 sequence (P41145 whole entry): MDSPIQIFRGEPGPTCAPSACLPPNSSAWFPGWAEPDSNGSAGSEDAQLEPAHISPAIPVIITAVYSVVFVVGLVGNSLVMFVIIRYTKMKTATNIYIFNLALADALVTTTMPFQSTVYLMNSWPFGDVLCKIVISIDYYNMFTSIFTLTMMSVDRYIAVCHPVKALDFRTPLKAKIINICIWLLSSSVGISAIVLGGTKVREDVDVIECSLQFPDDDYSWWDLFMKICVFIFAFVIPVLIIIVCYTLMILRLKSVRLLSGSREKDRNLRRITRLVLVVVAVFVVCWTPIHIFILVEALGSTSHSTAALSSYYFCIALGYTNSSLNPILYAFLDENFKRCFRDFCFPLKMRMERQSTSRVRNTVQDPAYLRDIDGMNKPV
T25 sequence (P08588 whole entry): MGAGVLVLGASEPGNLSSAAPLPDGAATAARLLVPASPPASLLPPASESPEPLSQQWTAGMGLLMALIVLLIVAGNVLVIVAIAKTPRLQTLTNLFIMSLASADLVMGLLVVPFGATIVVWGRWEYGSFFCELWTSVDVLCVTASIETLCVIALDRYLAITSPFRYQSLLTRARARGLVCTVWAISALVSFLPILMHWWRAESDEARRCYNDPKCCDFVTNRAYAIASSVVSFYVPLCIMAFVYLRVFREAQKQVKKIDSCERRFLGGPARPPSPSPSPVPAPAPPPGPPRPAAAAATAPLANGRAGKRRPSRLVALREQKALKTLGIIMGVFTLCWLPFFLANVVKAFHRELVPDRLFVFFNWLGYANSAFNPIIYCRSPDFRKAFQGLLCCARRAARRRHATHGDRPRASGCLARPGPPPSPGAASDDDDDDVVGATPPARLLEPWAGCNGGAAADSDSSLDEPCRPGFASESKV
T26 sequence (P25021 whole entry): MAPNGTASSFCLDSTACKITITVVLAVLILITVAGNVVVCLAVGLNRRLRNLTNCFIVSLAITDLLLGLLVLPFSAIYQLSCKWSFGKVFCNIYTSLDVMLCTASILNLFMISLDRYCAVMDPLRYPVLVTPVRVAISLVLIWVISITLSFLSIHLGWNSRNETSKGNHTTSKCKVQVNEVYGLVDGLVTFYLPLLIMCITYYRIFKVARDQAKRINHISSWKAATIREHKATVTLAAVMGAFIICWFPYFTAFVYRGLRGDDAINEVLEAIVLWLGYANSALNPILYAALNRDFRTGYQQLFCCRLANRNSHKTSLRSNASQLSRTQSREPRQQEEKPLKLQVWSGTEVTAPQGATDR
T17 sequence (P34972 whole entry): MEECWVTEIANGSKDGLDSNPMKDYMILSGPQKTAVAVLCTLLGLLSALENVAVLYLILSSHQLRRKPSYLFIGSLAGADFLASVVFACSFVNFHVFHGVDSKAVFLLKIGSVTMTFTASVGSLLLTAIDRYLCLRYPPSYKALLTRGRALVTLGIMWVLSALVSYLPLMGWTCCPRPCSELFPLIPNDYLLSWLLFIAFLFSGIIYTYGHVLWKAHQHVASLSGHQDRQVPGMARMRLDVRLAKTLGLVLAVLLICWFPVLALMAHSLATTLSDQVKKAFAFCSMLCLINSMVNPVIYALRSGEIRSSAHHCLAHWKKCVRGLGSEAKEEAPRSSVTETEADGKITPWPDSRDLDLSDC
T34 sequence (P41143 whole entry): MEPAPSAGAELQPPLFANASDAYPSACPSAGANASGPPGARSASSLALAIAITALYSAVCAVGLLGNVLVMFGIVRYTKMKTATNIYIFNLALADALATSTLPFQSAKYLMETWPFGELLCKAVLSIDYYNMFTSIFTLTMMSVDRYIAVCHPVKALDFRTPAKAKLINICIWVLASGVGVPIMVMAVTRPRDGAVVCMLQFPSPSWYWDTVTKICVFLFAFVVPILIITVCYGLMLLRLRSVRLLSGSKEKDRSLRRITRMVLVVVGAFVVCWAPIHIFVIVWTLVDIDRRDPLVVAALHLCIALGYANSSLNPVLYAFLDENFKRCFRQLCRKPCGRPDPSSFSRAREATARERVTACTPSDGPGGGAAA
T12 sequence (P35348 whole entry): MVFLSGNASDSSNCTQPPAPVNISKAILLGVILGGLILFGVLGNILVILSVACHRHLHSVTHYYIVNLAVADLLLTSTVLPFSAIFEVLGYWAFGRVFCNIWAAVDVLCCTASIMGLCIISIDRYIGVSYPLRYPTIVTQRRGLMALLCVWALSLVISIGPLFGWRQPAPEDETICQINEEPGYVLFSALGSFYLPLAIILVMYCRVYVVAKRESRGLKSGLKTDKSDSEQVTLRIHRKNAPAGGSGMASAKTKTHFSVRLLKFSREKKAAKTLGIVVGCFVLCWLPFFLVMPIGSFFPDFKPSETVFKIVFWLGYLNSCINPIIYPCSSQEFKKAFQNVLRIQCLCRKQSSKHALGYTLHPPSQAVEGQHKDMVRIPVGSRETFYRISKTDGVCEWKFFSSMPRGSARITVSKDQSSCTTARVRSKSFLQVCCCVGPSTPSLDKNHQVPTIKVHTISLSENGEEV
T28 sequence (P08913 whole entry): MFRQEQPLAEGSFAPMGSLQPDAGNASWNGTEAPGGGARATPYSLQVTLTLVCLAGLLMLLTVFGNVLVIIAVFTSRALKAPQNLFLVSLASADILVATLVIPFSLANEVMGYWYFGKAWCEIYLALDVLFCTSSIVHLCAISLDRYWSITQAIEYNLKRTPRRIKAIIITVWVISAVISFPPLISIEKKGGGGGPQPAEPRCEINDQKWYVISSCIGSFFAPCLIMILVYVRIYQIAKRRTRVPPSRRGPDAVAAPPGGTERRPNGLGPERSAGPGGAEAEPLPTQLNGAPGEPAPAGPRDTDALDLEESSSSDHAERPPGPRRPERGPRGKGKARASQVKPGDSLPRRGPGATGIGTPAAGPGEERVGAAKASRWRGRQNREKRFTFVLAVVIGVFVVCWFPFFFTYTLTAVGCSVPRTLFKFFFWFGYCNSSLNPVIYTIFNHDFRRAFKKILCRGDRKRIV

Compound: CC(C)(C)N1CCN(Cc2cc3nc(-c4cncc5[nH]ccc45)cc(N4CCOCC4)n3n2)CC1 [CPL302-253]
- % Response HTR2B Agonist (HTR2B; Agonist mode): 1.5%
- % Response HTR2B Antagonist (HTR2B; Antagonist mode): 12.6%
- % Response AR Agonist (AR; Agonist mode): -0.7%
- % Response AR Antagonist (AR; Antagonist mode): 8.5%
- % Response INSR Inhibitor (INSR): -6.5%
- % Response CNR1 Agonist (CNR1; Agonist mode): -9.2%
- % Response CNR1 Antagonist (CNR1; Antagonist mode): -1.3%
- % Response CHRM2 Agonist (CHRM2; Agonist mode): 8.2%
- % Response CHRM2 Antagonist (CHRM2; Antagonist mode): 35.2%
- % Response SERT Blocker (SERT): 21.5%
- % Response NET Blocker (NET): 8.5%
- % Response DRD2S Agonist (DRD2S; Agonist mode): -4.5%
- % Response DRD2S Antagonist (DRD2S; Antagonist mode): -1.1%
- % Response CHRM1 Agonist (CHRM1; Agonist mode): 1.2%
- % Response CHRM1 Antagonist (CHRM1; Antagonist mode): 48.1%
- % Response CHRM3 Agonist (CHRM3; Agonist mode): 1.2%
- % Response CHRM3 Antagonist (CHRM3; Antagonist mode): 12.6%
- % Response AChE Inhibitor (AChE): 27.8%
- % Response ADRA1A Agonist (ADRA1A; Agonist mode): -22.5%
- % Response ADRA1A Antagonist (ADRA1A; Antagonist mode): -2.8%
- % Response ROCK1 Inhibitor (ROCK1): 10.3%
- % Response PDE3A Inhibitor (PDE3A): -8.1%
- % Response ADORA2A Agonist (ADORA2A; Agonist mode): -0.8%
- % Response ADORA2A Antagonist (ADORA2A; Antagonist mode): 11.7%
- % Response LCK Inhibitor (LCK): 16.3%
- % Response CNR2 Agonist (CNR2; Agonist mode): 16.4%
- % Response CNR2 Antagonist (CNR2; Antagonist mode): 1.1%
- % Response GABAA Blocker (GABAA; Blocker mode): 1.4%
- % Response GABAA Opener (GABAA; Opener mode): -2.3%
- % Response CAV1.2 Blocker (CAV1.2): -1.1%
- % Response DRD1 Agonist (DRD1; Agonist mode): 1.1%
- % Response DRD1 Antagonist (DRD1; Antagonist mode): 9.3%
- % Response PDE4D2 Inhibitor (PDE4D2): 2.0%
- % Response GR Agonist (GR; Agonist mode): 0.0%
- % Response GR Antagonist (GR; Antagonist mode): -5.6%
- % Response OPRM1 Agonist (OPRM1; Agonist mode): -9.0%
- % Response OPRM1 Antagonist (OPRM1; Antagonist mode): 0.2%
- % Response HRH1 Agonist (HRH1; Agonist mode): -0.2%
- % Response HRH1 Antagonist (HRH1; Antagonist mode): 7.2%
- % Response MAOA Inhibitor (MAOA): 8.5%
- % Response ADRB1 Agonist (ADRB1; Agonist mode): 0.5%
- % Response ADRB1 Antagonist (ADRB1; Antagonist mode): 26.6%
- % Response HRH2 Agonist (HRH2; Agonist mode): 0.6%
- % Response HRH2 Antagonist (HRH2; Antagonist mode): 4.2%
- % Response HTR1B Agonist (HTR1B; Agonist mode): 8.0%
- % Response HTR1B Antagonist (HTR1B; Antagonist mode): 0.1%
- % Response ADRA2A Agonist (ADRA2A; Agonist mode): 0.4%
- % Response ADRA2A Antagonist (ADRA2A; Antagonist mode): -0.7%
- % Response NAV1.5 Blocker (NAV1.5): 9.7%
- % Response AVPR1A Agonist (AVPR1A; Agonist mode): -3.2%
- % Response AVPR1A Antagonist (AVPR1A; Antagonist mode): -5.2%
- % Response HTR1A Agonist (HTR1A; Agonist mode): 5.6%
- % Response HTR1A Antagonist (HTR1A; Antagonist mode): -4.8%
- % Response EDNRA Agonist (EDNRA; Agonist mode): -3.3%
- % Response EDNRA Antagonist (EDNRA; Antagonist mode): -4.8%
- % Response OPRK1 Agonist (OPRK1; Agonist mode): -11.0%
- % Response OPRK1 Antagonist (OPRK1; Antagonist mode): 0.3%
- % Response OPRD1 Agonist (OPRD1; Agonist mode): -6.4%
- % Response OPRD1 Antagonist (OPRD1; Antagonist mode): 0.4%
- % Response COX2 Inhibitor (COX2): 11.9%
- % Response VEGFR2 Inhibitor (VEGFR2): 30.7%
